Assays:
[1] = system: cat with multiple myeloma; assay: Delta Correlation Function analysis of dexamethasone dose versus food intake, cat myeloma model; format: in vivo; conditions: for normalized DCF, food intake versus dexamethasone dose: 1 day off
From the text: The inventive method was used to analyze changes from day to day. The data was digitized by substituting either +1 for positive change (dayn+i greater than dayn), 0 (zero) for no change, and −1 for negative change (dayn+i less than dayn). Digitizing the change magnifies small changes by giving small differences the same value as large differences. For example, a positive change is noted as +1 whether the change is 1 milligram or 10 grams.
The inventive method multiplied a digitized change in therapy element by the corresponding digitized change in correlation factor to produce a correlation product. Because the digitized changes are signed (+ or −), changes in the same direction (both positive or both negative) produce a positive product. Changes in opposite directions (one negative and one positive) produce a negative product. The inventive method then provided a rolling average of correlation products over fixed period of time. (A positive average indicates a positive correlation between dose and result.)
There is a phase or timing relationship that should be considered. FIG. 15, drawn to the same scale as FIG. 14, illustrates an eighteen day rolling average of correlation product with a one day offset for the change in food intake. That is, the food intake on dayn+i minus the food intake on dayn is multiplied by the dose on dayn minus the dose on dayn—i. In FIGS. 12-14, the product is the food intake on dayn minus the food intake on dayn—i multiplied by the dose on dayn minus the dose on dayn—i.
Because of the delayed effect of some therapies, the invention provides for an “offset,” or staggering, of the corresponding therapy elements and correlation factors that are multiplied to obtain the normalized Delta Correlation Function (DCF).
A method provided by the invention was used to optimize the dexamethasone regimen based on the correlation factor food intake (i.e., determined the dexamethasome regimen that produces an increase in food intake.) Again, the cat myeloma model was used. […] The normalized DCF was calculated based upon a 24 time point sample (Days 445 to 469) with various offsets.

[2] = system: cat with multiple myeloma; assay: System Functions (linear regression of dexamethasone dose versus food intake) and test of dexamethasone regimens, cat myeloma model; format: in vivo
From the text: Based on the foregoing analysis, 3 different dexamethasone regimens where designed and hypothesized systems functions were formulated for predicting the impact of a regimen on food intake. […] In general, the system functions are in the form of:
Predicted Food Intake Dayn (tsp)=(dexamethasone dose Dayn) (mg)×Factor Dayn (tsp/mg);
Predicted Food Intake Dayn+1 (tsp)=[(dexamethasone dose Dayn+1) (mg)×Factor Dayn+1 (tsp/mg)]+Predicted Food Intake Dayn;
Predicted Food Intake Dayn+2 (tsp)=[(dexamethasone dose Dayn+2) (mg)×Factor Dayn+2 (tsp/mg)]+Predicted Food Intake Dayn+1;
wherein “Dayn” is the first day of a three to six day dosing cycle and, if the dexamethasone dose is 0.00, this value is converted to 1.00. “Factor Dayn” is regimen specific and was determined by linear regression analysis of the correlation between dexamethasone dose and food intake performed separately for days 1, 2, and 3 of the cycle a given regimen. For example, all first day dexamethasone administrations were identified in the past data. Food intake for those days were compared to the food intake the day before and averaged, then divided by the dose of dexamethasone for each first day (((Food Intake Dayn (tsp)−Dayn−1 (tsp))/number of first days)/dexamethasone Dayn).
The system functions were used to predict the results with three dexarnethasone regimens. Regimen 1 employs a dosing schedule of 0.250 mg dexamethasone 2 days on and then 1 day off.

[3] = system: multiple myeloma in a cat; assay: Narrow therapeutic band established by potentiating the therapy of multiple myeloma in a cat
[4] = thalidomide 1.6 mg, in combination with the other elements of the potentiating protocol

## C[C@@H]1C[C@H]2[C@@H]3CCC4=CC(=O)C=C[C@]4(C)[C@@]3(F)[C@@H](O)C[C@]2(C)[C@@]1(O)C(=O)CO [dexamethasone]
[1]; 0.175 mg/day, 2 days on, Days 445 to 469 (24 time points), same day basis (no offset)
  normalized DCF, food intake versus dexamethasone dose: −0.16
[1]; 0.175 mg/day, 2 days on, Days 445 to 469, 2 day offset
  normalized DCF, food intake versus dexamethasone dose: +0.37
[1]; 0.175 mg/day, 2 days on, Days 445 to 469, 3 day offset
  normalized DCF, food intake versus dexamethasone dose: −0.09
[1]; 0.175 mg/day, 2 days on, Days 445 to 469, food intake offset by 1 day
  normalized DCF, food intake versus dexamethasone dose: −0.21
[1]; 0.375 mg, 1 day on, 1 day off regimen
  time required for the dexamethasone therapeutic effect to develop: approximately 1 day
[1]; 0.375 mg, 1 day on, Days 37 to 61, 1 day offset
  normalized DCF, food intake versus dexamethasone dose: +0.5
[1]; 0.375 mg, 1 day on, Days 37 to 61, same day
  normalized DCF, food intake versus dexamethasone dose: −0.52
[2]; Regimen 1 (0.250 mg 2 days on, 1 day off), Dayn
  Factor Dayn of System Function (food intake per dexamethasone dose): −5.11 tsp/mg
[2]; Regimen 1, Dayn+1
  Factor Dayn+1 of System Function: 8.57 tsp/mg
[2]; Regimen 1, Dayn+2 (day off, dose 0.00 converted to 1.00)
  Factor Dayn+2 of System Function: 2.23 tsp/mg
[2]; Regimen 1: 0.250 mg dexamethasone 2 days on, 1 day off, physiologic limit
  food intake reached: 15.5 tsp per day
[2]; Regimen 2 (0.250 mg 2 days on, then 1 day at 0.125 mg), Dayn
  Factor Dayn of System Function: −5.11 tsp/mg
[2]; Regimen 2, Dayn+1
  Factor Dayn+1 of System Function: 8.57 tsp/mg
[2]; Regimen 2, Dayn+2 (0.125 mg)
  Factor Dayn+2 of System Function: −0.53 tsp/mg
[2]; Regimen 3 (0.125 mg every day, six day cycle), Dayn
  Factor Dayn of System Function: −5.11 tsp/mg
[2]; Regimen 3, Dayn+1
  Factor Dayn+1 of System Function: 8.57 tsp/mg
[2]; Regimen 3, Dayn+2
  Factor Dayn+2 of System Function: −0.53 tsp/mg
[2]; Regimen 3, Dayn+3
  Factor Dayn+3 of System Function: −0.10 tsp/mg
[2]; Regimen 3, Dayn+4
  Factor Dayn+4 of System Function: 3.89 tsp/mg
[2]; Regimen 3, Dayn+5
  Factor Dayn+5 of System Function: −1.72 tsp/mg
[3]; dexamethasone 0.125 mg (modulated 2 days on, 1 day off), in combination with the other elements of the protocol
  side effects at minimum dose: without significant side effects
[3]; dexamethasone doses above 0.162 mg, such as thromboses and peripheral neuropathy
  adverse side effects above end point of narrow band: increased

## O=C1CCC(N2C(=O)c3ccccc3C2=O)C(=O)N1 (centres unmarked) [thalidomide]
[3]; [4]
  side effects at minimum dose: without significant thalidomide side effects or resistance
  therapeutic effect at minimum dose: controlled the disease
[3]; thalidomide doses above 1.8 mg
  therapeutic effect above end point of narrow band: not increased
[3]; thalidomide doses above 1.8 mg, such as peripheral neuropathy
  adverse side effects above end point of narrow band: increased
